Patent publication US4517181A, “Mammalian PGRF” (The Salk Institute for Biological Studies, priority 1982, dated 1985)

Test system: cells of rat pituitary glands
Assay: in vitro GH release, rat pituitary cell monolayer culture bioassay (ir GH by radioimmunoassay)
Type: cell-based
Settings: for biological potency (additional testing): compared with PGRF (1-40); for GH-releasing activity: peptides isolated from human islet cell tumor
Procedure: To determine the effectiveness of the peptides to promote the release of growth hormone, in vitro assays are carried out using synthetic PGRF (1-40) of Example II in side-by-side comparison with equimolar concentrations of the extracted and purified native PGRF (1-40) and of a GRF Reference Standard having a known effectiveness to promote the release of growth hormone from pituitary cells. The GRF Reference standard is described and defined in Brazeau, et al., Endocrinology, Vol. 110, A538(1982) and is an amount of a preparation of rat hypothalamic origin that produces a half-maximal response in terms of GH release in a pituitary cell monolayer bioassay. Cultures are used which include cells of rat pituitary glands removed some four to five days previously. Both cultures of a defined standard medium and cultures which are considered optimal for the secretion of growth hormone are used for the comparative testing, in the general manner described in Brazeau, et al. Regulatory Peptides, 1, 255, 1981. Incubation with the substance to be tested is carried out for 3 to 4 hours, and aliquots of the culture medium are removed and processed to measure their contents in inmunoreactive GH(ir GH) by a well-characterized radioimmunoassay.
The in vitro assays described in Example VII are repeated using Native PGRF(1-40) and Native PGRF(1-44) and the results are set forth in following Table III: […]

## CC[C@H](C)[C@H](NC(=O)[C@H](C)NC(=O)[C@H](CC(=O)O)NC(=O)[C@H](C)NC(=O)[C@@H](N)Cc1ccc(O)cc1)C(=O)N[C@@H](Cc1ccccc1)C(=O)N[C@H](C(=O)N[C@@H](CC(N)=O)C(=O)N[C@@H](CO)C(=O)N[C@@H](Cc1ccc(O)cc1)C(=O)N[C@@H](CCCNC(=N)N)C(=O)N[C@@H](CCCCN)C(=O)N[C@H](C(=O)N[C@@H](CC(C)C)C(=O)NCC(=O)N[C@@H](CCC(N)=O)C(=O)N[C@@H](CC(C)C)C(=O)N[C@@H](CO)C(=O)N[C@@H](C)C(=O)N[C@@H](CCCNC(=N)N)C(=O)N[C@@H](CCCCN)C(=O)N[C@@H](CC(C)C)C(=O)N[C@@H](CC(C)C)C(=O)N[C@@H](CCC(N)=O)C(=O)N[C@@H](CC(=O)O)C(=O)N[C@H](C(=O)N[C@@H](CCSC)C(=O)N[C@@H](CO)C(=O)N[C@@H](CCCNC(=N)N)C(=O)N[C@@H](CCC(N)=O)C(=O)N[C@@H](CCC(N)=O)C(=O)NCC(=O)N[C@@H](CCC(=O)O)C(=O)N[C@@H](C)C(=O)N[C@@H](CC(N)=O)C(=O)N[C@@H](CCC(N)=O)C(=O)N[C@@H](CCC(=O)O)C(=O)N[C@@H](CO)C(=O)NCC(=O)N[C@@H](CCCNC(=N)N)C(=O)O)[C@@H](C)CC)C(C)C)[C@@H](C)O [Example IV]
  biological potency (additional testing): substantially the same biological potency as the native PGRF (1-40)

## CC[C@H](C)[C@H](NC(=O)[C@H](C)NC(=O)[C@H](CC(=O)O)NC(=O)[C@H](C)NC(=O)[C@@H](N)Cc1ccc(O)cc1)C(=O)N[C@@H](Cc1ccccc1)C(=O)N[C@H](C(=O)N[C@@H](CC(N)=O)C(=O)N[C@@H](CO)C(=O)N[C@@H](Cc1ccc(O)cc1)C(=O)N[C@@H](CCCNC(=N)N)C(=O)N[C@@H](CCCCN)C(=O)N[C@H](C(=O)N[C@@H](CC(C)C)C(=O)NCC(=O)N[C@@H](CCC(N)=O)C(=O)N[C@@H](CC(C)C)C(=O)N[C@@H](CO)C(=O)N[C@@H](C)C(=O)N[C@@H](CCCNC(=N)N)C(=O)N[C@@H](CCCCN)C(=O)N[C@@H](CC(C)C)C(=O)N[C@@H](CC(C)C)C(=O)N[C@@H](CCC(N)=O)C(=O)N[C@@H](CC(=O)O)C(=O)N[C@H](C(=O)N[C@@H](CCSC)C(=O)N[C@@H](CO)C(=O)N[C@@H](CCCNC(=N)N)C(=O)N[C@@H](CCC(N)=O)C(=O)N[C@@H](CCC(N)=O)C(=O)NCC(=O)N[C@@H](CCC(=O)O)C(=O)N[C@@H](CO)C(=O)N[C@@H](CC(N)=O)C(=O)N[C@@H](CCC(N)=O)C(=O)N[C@@H](CCC(=O)O)C(=O)N[C@@H](CCCNC(=N)N)C(=O)NCC(=O)N[C@@H](C)C(N)=O)[C@@H](C)CC)C(C)C)[C@@H](C)O [Example V, PGRF (1-40)-amide]
  biological potency (additional testing): substantially twice the biological potency of the synthetic peptide tested in Example VII

## CC[C@H](C)[C@H](NC(=O)[C@H](C)NC(=O)[C@H](CC(=O)O)NC(=O)[C@H](C)NC(=O)[C@@H](N)Cc1ccc(O)cc1)C(=O)N[C@@H](Cc1ccccc1)C(=O)N[C@H](C(=O)N[C@@H](CC(N)=O)C(=O)N[C@@H](CO)C(=O)N[C@@H](Cc1ccc(O)cc1)C(=O)N[C@@H](CCCNC(=N)N)C(=O)N[C@@H](CCCCN)C(=O)N[C@H](C(=O)N[C@@H](CC(C)C)C(=O)NCC(=O)N[C@@H](CCC(N)=O)C(=O)N[C@@H](CC(C)C)C(=O)N[C@@H](CO)C(=O)N[C@@H](C)C(=O)N[C@@H](CCCNC(=N)N)C(=O)N[C@@H](CCCCN)C(=O)N[C@@H](CC(C)C)C(=O)N[C@@H](CC(C)C)C(=O)N[C@@H](CCC(N)=O)C(=O)N[C@@H](CC(=O)O)C(=O)N[C@H](C(=O)N[C@@H](CCSC)C(=O)N[C@@H](CO)C(=O)N[C@@H](CCCNC(=N)N)C(=O)N[C@@H](CCC(N)=O)C(=O)N[C@@H](CCC(N)=O)C(=O)NCC(=O)N[C@@H](CCC(=O)O)C(=O)N[C@@H](CO)C(=O)N[C@@H](CC(N)=O)C(=O)N[C@@H](CCC(N)=O)C(=O)N[C@@H](CCC(=O)O)C(=O)O)[C@@H](C)CC)C(C)C)[C@@H](C)O [Example VI, PGRF (1-37)-free acid]
  biological potency (additional testing): very substantial biological potency

## CC[C@H](C)[C@H](NC(=O)[C@H](C)NC(=O)[C@H](CC(=O)O)NC(=O)[C@H](C)NC(=O)[C@@H](N)Cc1ccc(O)cc1)C(=O)N[C@@H](Cc1ccccc1)C(=O)N[C@H](C(=O)N[C@@H](CC(N)=O)C(=O)N[C@@H](CO)C(=O)N[C@@H](Cc1ccc(O)cc1)C(=O)N[C@@H](CCCNC(=N)N)C(=O)N[C@@H](CCCCN)C(=O)N[C@H](C(=O)N[C@@H](CC(C)C)C(=O)NCC(=O)N[C@@H](CCC(N)=O)C(=O)N[C@@H](CC(C)C)C(=O)N[C@@H](CO)C(=O)N[C@@H](C)C(=O)N[C@@H](CCCNC(=N)N)C(=O)N[C@@H](CCCCN)C(=O)N[C@@H](CC(C)C)C(=O)N[C@@H](CC(C)C)C(=O)N[C@@H](CCC(N)=O)C(=O)N[C@@H](CC(=O)O)C(=O)N[C@H](C(=O)N[C@@H](CCSC)C(=O)N[C@@H](CO)C(=O)N[C@@H](CCCNC(=N)N)C(=O)N[C@@H](CCC(N)=O)C(=O)N[C@@H](CCC(N)=O)C(=O)NCC(=O)N[C@@H](CCC(=O)O)C(=O)N[C@@H](CO)C(=O)N[C@@H](CC(N)=O)C(=O)N[C@@H](CCC(N)=O)C(=O)N[C@@H](CCC(=O)O)C(=O)N[C@@H](CCCNC(=N)N)C(=O)NCC(=O)N[C@@H](C)C(=O)O)[C@@H](C)CC)C(C)C)[C@@H](C)O [Native PGRF (1-40)]
Table I, 12.5 femtomoles
  GH secretion in vitro % of controls: 234 ± 17 % of controls
Table I, 25 fmoles
  GH secretion in vitro % of controls: 351 ± 7 % of controls
Table I, 50 fmoles
  GH secretion in vitro % of controls: 528 ± 16 % of controls
Table I, 100 fmoles
  GH secretion in vitro % of controls: 720 ± 32 % of controls
Table I, 200 fmoles
  GH secretion in vitro % of controls: 748 ± 7 % of controls
Table III, 6.3 femtomoles
  GH secretion in vitro % of controls: 198 ± 5.9 % of controls
Table III, 12.5 femtomoles
  GH secretion in vitro % of controls: 270 ± 2.4 % of controls
Table III, 25.0 femtomoles
  GH secretion in vitro % of controls: 348 ± 3.4 % of controls
Table III, 50.0 femtomoles
  GH secretion in vitro % of controls: 466 ± 0.9 % of controls
Table III, 100.0 femtomoles
  GH secretion in vitro % of controls: 570 ± 17 % of controls
Table III, 200.0 femtomoles
  GH secretion in vitro % of controls: 579 ± 2.1 % of controls
Table III, 400.0 femtomoles
  GH secretion in vitro % of controls: 588 ± 10 % of controls
  GH-releasing activity: exhibit GH-releasing activity

## CC[C@H](C)[C@H](NC(=O)[C@H](C)NC(=O)[C@H](CC(=O)O)NC(=O)[C@H](C)NC(=O)[C@@H](N)Cc1ccc(O)cc1)C(=O)N[C@@H](Cc1ccccc1)C(=O)N[C@H](C(=O)N[C@@H](CC(N)=O)C(=O)N[C@@H](CO)C(=O)N[C@@H](Cc1ccc(O)cc1)C(=O)N[C@@H](CCCNC(=N)N)C(=O)N[C@@H](CCCCN)C(=O)N[C@H](C(=O)N[C@@H](CC(C)C)C(=O)NCC(=O)N[C@@H](CCC(N)=O)C(=O)N[C@@H](CC(C)C)C(=O)N[C@@H](CO)C(=O)N[C@@H](C)C(=O)N[C@@H](CCCNC(=N)N)C(=O)N[C@@H](CCCCN)C(=O)N[C@@H](CC(C)C)C(=O)N[C@@H](CC(C)C)C(=O)N[C@@H](CCC(N)=O)C(=O)N[C@@H](CC(=O)O)C(=O)N[C@H](C(=O)N[C@@H](CCSC)C(=O)N[C@@H](CO)C(=O)N[C@@H](CCCNC(=N)N)C(=O)N[C@@H](CCC(N)=O)C(=O)N[C@@H](CCC(N)=O)C(=O)NCC(=O)N[C@@H](CCC(=O)O)C(=O)N[C@@H](CO)C(=O)N[C@@H](CC(N)=O)C(=O)N[C@@H](CCC(N)=O)C(=O)N[C@@H](CCC(=O)O)C(=O)N[C@@H](CCCNC(=N)N)C(=O)NCC(=O)N[C@@H](C)C(=O)N[C@@H](CCCNC(=N)N)C(=O)N[C@@H](C)C(=O)N[C@@H](CCCNC(=N)N)C(=O)N[C@@H](CC(C)C)C(N)=O)[C@@H](C)CC)C(C)C)[C@@H](C)O [Native PGRF (1-44)]
Table III, 6.3 femtomoles
  GH secretion in vitro % of controls: 289 ± 10 % of controls
Table III, 12.5 femtomoles
  GH secretion in vitro % of controls: 391 ± 8 % of controls
Table III, 25.0 femtomoles
  GH secretion in vitro % of controls: 479 ± 8 % of controls
Table III, 50.0 femtomoles
  GH secretion in vitro % of controls: 561 ± 14 % of controls
Table III, 100.0 femtomoles
  GH secretion in vitro % of controls: 599 ± 7 % of controls
Table III, 200.0 femtomoles
  GH secretion in vitro % of controls: 606 ± 6 % of controls
Table III, 400.0 femtomoles
  GH secretion in vitro % of controls: 610 ± 5 % of controls
Confidence limits of 1.616 and 3.131, computer calculated (BIOPROG)
  Potency in terms of PGRF(1-40): 2.2261 ×PGRF(1-40)
Per 1 femtomole, confidence limits of 0.122 and 0.239, computer calculated (BIOPROG)
  Potency in terms of GRF Reference Standard: 0.1696 unit

## CC[C@H](C)[C@H](NC(=O)[C@H](C)NC(=O)[C@H](CC(=O)O)NC(=O)[C@H](C)NC(=O)[C@@H](N)Cc1ccc(O)cc1)C(=O)N[C@@H](Cc1ccccc1)C(=O)N[C@H](C(=O)N[C@@H](CC(N)=O)C(=O)N[C@@H](CO)C(=O)N[C@@H](Cc1ccc(O)cc1)C(=O)N[C@@H](CCCNC(=N)N)C(=O)N[C@@H](CCCCN)C(=O)N[C@H](C(=O)N[C@@H](CC(C)C)C(=O)NCC(=O)N[C@@H](CCC(N)=O)C(=O)N[C@@H](CC(C)C)C(=O)N[C@@H](CO)C(=O)N[C@@H](C)C(=O)N[C@@H](CCCNC(=N)N)C(=O)N[C@@H](CCCCN)C(=O)N[C@@H](CC(C)C)C(=O)N[C@@H](CC(C)C)C(=O)N[C@@H](CCC(N)=O)C(=O)N[C@@H](CC(=O)O)C(=O)N[C@H](C(=O)N[C@@H](CCSC)C(=O)N[C@@H](CO)C(=O)N[C@@H](CCCNC(=N)N)C(=O)N[C@@H](CCC(N)=O)C(=O)N[C@@H](CCC(N)=O)C(=O)NCC(=O)N[C@@H](CCC(=O)O)C(=O)N[C@@H](CO)C(=O)N[C@@H](CC(N)=O)C(=O)N[C@@H](CCC(N)=O)C(=O)N[C@@H](CCC(=O)O)C(=O)O)[C@@H](C)CC)C(C)C)[C@@H](C)O [PGRF(1-37) free acid]
  GH-releasing activity: exhibit GH-releasing activity
